# Molecular target: T1, Trp-p8 (Homo sapiens, UniProt Q7Z2W7, T58I)
# T1 construct: expressed in transfected cells
# Assay: Cell viability (ATP) assay for Trp-p8 antagonists: protection of CHO/Trp-p8 cells from toxic control agonist D-1607
# Format: cell-based
# Details: Table 2, Formula VIII antagonists; 10 μM compound plus toxic concentration of control agonist D-1607, CHO/Trp-p8 cells, 37° C.; ATP level relative to DMSO
# Experimental: FIG. 4 is a graph depicting exemplary results from a primary screen for Trp-p8 antagonists using the ATP viability assay, described herein, with CHO/Trp-p8 cells at 37° C. CHO/Trp-p8 cells were exposed to compounds, at different concentrations, in 1% DMSO or 1% DMSO in combination with a toxic concentration of the Trp-p8 agonist 1607. The viability of cells was measured after 24-26 hours at 37° C. using the ATP assay.
# As a primary screen for efficacy and specificity for agonists, both the non-transfected CHO and CHO/Trp-p8 cells were exposed to 10 μM of test compounds in 1% dimethylsulfoxide (DMSO) or 1% DMSO (control) in a 96-well black walled, black-bottomed, cell-culture treated plate. DMSO was the solvent for all of the compounds tested. After 24-26 hours at 37° C., the cells were lysed and ATP concentration determined via a chemiluminescence assay using a commercially available reagent kit—Cell Titer-Glo (Promega; Madison, Wis.). […] (EC50 is defined herein as the agonist concentration at which there is a 50% reduction in cell viability).
# Trp-p8 antagonists were identified by employing a cell viability assay with CHO/Trp-p8 cells at 37° C. (see Example 7) with the following modification. Within the context of the present invention, compounds that protect CHO/Trp-p8 cells from the toxic effect of a control agonist thereby maintaining the viability of the CHO/Trp-p8 cell exposed to a Trp-p8 agonist is defined as antagonist. As a primary screen for antagonists, CHO/Trp-p8 cells were exposed to 10 μM of test compounds in 1% dimethylsulfoxide (DMSO) or 1% DMSO plus a toxic concentration of a control agonist, D-1607.
# T1 sequence (Q7Z2W7 whole entry T58I): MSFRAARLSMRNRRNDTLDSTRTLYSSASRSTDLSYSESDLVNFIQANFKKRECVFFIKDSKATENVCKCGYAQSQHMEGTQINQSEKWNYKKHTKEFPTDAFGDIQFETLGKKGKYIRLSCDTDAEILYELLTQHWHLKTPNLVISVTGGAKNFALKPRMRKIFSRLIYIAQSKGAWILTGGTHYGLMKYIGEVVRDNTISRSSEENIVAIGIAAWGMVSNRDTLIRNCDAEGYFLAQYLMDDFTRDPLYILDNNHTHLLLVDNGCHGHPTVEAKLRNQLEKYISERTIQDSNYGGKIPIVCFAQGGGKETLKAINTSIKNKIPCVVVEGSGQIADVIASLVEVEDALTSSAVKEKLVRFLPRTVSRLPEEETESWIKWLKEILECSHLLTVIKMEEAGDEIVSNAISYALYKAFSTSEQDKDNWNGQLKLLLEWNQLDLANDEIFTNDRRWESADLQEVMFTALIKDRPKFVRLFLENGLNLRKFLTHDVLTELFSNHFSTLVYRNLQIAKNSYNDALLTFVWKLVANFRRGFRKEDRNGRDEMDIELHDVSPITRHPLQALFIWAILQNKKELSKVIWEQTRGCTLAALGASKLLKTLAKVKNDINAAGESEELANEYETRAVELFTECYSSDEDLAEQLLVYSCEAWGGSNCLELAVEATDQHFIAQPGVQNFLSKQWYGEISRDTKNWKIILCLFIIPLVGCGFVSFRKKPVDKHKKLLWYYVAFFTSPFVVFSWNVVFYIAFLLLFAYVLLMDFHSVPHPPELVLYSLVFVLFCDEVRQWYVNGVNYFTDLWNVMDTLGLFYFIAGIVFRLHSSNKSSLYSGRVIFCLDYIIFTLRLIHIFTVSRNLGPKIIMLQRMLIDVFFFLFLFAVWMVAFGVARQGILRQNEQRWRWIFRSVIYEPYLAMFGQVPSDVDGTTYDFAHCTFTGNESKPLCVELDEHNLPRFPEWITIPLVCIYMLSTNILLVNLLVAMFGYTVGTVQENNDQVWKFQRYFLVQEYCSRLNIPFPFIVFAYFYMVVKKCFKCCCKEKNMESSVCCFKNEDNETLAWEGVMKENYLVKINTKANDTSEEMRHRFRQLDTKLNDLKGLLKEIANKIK
row,SMILES,Relative Viability (%) at 10 μM
1,CCCC1c2cccn2CCN1C(=O)O[C@@H]1C[C@H](C)CC[C@H]1C(C)C (stereo partly drawn) [compound 1941],98%
2,COc1ccccc1NC(=O)CO[C@@H]1C[C@H](C)CC[C@H]1C(C)C [compound 1709],95%
3,CC(C)[C@@H]1CC[C@@H](C)C[C@H]1NC(=O)N1c2ccccc2CC1C (stereo partly drawn) [compound 1781],91%
4,CC(C)[C@@H]1CC[C@@H](C)C[C@H]1NC(=O)NCCC1=CCCCC1 [compound 1883],84%
5,CC(C)[C@@H]1CC[C@@H](C)C[C@H]1C(=O)Nc1ccc(S(=O)(=O)N2CCCCCC2)cc1 [compound 2865],91%
6,CC(C)[C@@H]1CC[C@@H](C)C[C@H]1OCC(=O)N1CCc2ccccc2C1 [compound 1688],91%
7,CC(C)[C@@H]1CC[C@@H](C)C[C@H]1OCC(=O)N1CCCc2ccccc21 [compound 1696],82%
8,CC(C)[C@@H]1CC[C@@H](C)C[C@H]1NC(=O)CCC1CCCC1 [compound 1996],89%
9,CC(C)[C@@H]1CC[C@@H](C)C[C@H]1NC(=O)NCCN(Cc1ccccc1)C(C)C [compound 1885],97%
10,CC(C)[C@@H]1CC[C@@H](C)C[C@H]1NC(=O)SCc1ccccc1Cl [compound 2306],92%
11,CC(C)[C@@H]1CC[C@@H](C)C[C@H]1OCC(=O)NCCC1=CCCCC1 [compound 1743],97%
12,CC(C)[C@@H]1CC[C@@H](C)C[C@H]1NS(=O)(=O)c1cc(Br)c(Br)s1 [compound 2134],63%
13,CC(C)[C@@H]1CC[C@@H](C)C[C@H]1NS(=O)(=O)c1c(Cl)cc(Cl)cc1Cl [compound 2131],59%
14,CC(C)[C@@H]1CC[C@@H](C)C[C@H]1NCc1c[nH]nc1-c1ccccc1 [compound 2745],62%
15,CC(C)[C@@H]1CC[C@@H](C)C[C@H]1OCC(=O)NCCc1cccs1 [compound 1925],94%
16,CC(C)[C@@H]1CC[C@@H](C)C[C@H]1NC(=O)NC1CCCCCC1 [compound 1876],86%
17,COc1ccccc1CNC(=O)CO[C@@H]1C[C@H](C)CC[C@H]1C(C)C [compound 1673],112%
18,CCCCOc1ccc(-c2n[nH]cc2CN[C@@H]2C[C@H](C)CC[C@H]2C(C)C)cc1 [compound 2777],83%

row,SMILES,Relative Viability (%) at 10 μM
1,CCCCOc1ccc(C(=O)N[C@@H]2C[C@H](C)CC[C@H]2C(C)C)cc1 [compound 2044],94%
2,Cc1ccc(O)c(CN[C@@H]2C[C@H](C)CC[C@H]2C(C)C)c1 [compound 2710],70%
3,CC(C)[C@@H]1CC[C@@H](C)C[C@H]1NCc1c[nH]nc1-c1ccc(F)cc1 [compound 2752],65%
4,CC(C)[C@@H]1CC[C@@H](C)C[C@H]1OC(=O)N1CCc2ccccc21 [compound 1504],90%
5,CC(C)[C@@H]1CC[C@@H](C)C[C@H]1OC(=O)N1CCCc2ccccc21 [compound 1465],90%
6,CC(C)CN(CCNC(=O)CO[C@@H]1C[C@H](C)CC[C@H]1C(C)C)CC(C)C [compound 1920],81%
7,CC(C)[C@@H]1CC[C@@H](C)C[C@H]1OC(=O)N1CCn2cccc2C1C (stereo partly drawn) [compound 1940],110%
8,CC(C)[C@@H]1CC[C@@H](C)C[C@H]1NC(=O)SCc1ccccc1 [compound 2291],87%
9,CC(C)[C@@H]1CC[C@@H](C)C[C@H]1NC(=O)[C@@]12CC[C@@](C)(C(=O)O1)C2(C)C [compound 2046],89%
10,CC(C)[C@@H]1CC[C@@H](C)C[C@H]1OCC(=O)N1CCn2cccc2C1C (stereo partly drawn) [compound 1918],94%
11,CC(C)[C@@H]1CC[C@@H](C)CC1C(=O)N1c2ccccc2CC1C (stereo partly drawn) [compound 1588],88%
12,CCCC1c2cccn2CCC1C(=O)N[C@@H]1C[C@H](C)CC[C@H]1C(C)C (stereo partly drawn) [compound 1838],88%
13,CC(C)[C@@H]1CC[C@@H](C)C[C@H]1OC(=O)N1c2ccccc2CC1C (stereo partly drawn) [compound 1475],100%
14,CC(C)[C@@H]1CC[C@@H](C)C[C@H]1OC(=O)N1CCc2ccccc2C1 [compound 1457],112%
15,CC(C)[C@@H]1CC[C@@H](C)C[C@H]1NC(=O)NCCN1CCCc2ccccc21 [compound 1815],87%
16,COc1ccc(C2c3[nH]c4ccccc4c3CCN2C(=O)[C@@H]2C[C@H](C)CC[C@H]2C(C)C)cc1CN1CCc2cc(OC)c(OC)cc2C1C (stereo partly drawn) [compound 2676],83%
17,CC(C)[C@@H]1CC[C@@H](C)C[C@H]1OCC(=O)NCC1(c2ccccc2)CCCC1 [compound 1745],88%

# Same assay, conditions: Table 3, Formula VII antagonists; 10 μM compound plus toxic concentration of control agonist, CHO/Trp-p8 cells, 37° C.; ATP level relative to DMSO
row,SMILES,Rel. Viab. (%) at 10 μM
1,O=C1c2ccccc2-c2onc3c(N4CCN(C5CCCCC5)CC4)cc(Nc4ccc5c(c4)OCO5)c1c23 [compound 881],82%
2,COc1ccc(N2CCN(CC(O)COC3CC(C)CCC3C(C)C)CC2)cc1.Cl.Cl (stereo not drawn) [compound 93],111%
3,O=C1CN(c2nc3ccccc3c(=O)n2Cc2ccccc2)CC(=O)N1CCc1ccccc1 [compound 1069],86%
4,Cc1cc(N2CCN(Cc3ccc4c(c3)SCO4)CC2)n2nc(C)c(-c3ccc(Br)cc3)c2n1 [compound 1313],92%
5,COc1cc(C(c2sc3nc(C)nn3c2O)N2CCN(C(c3ccccc3)c3ccccc3)CC2)cc(OC)c1OC (stereo not drawn) [compound 1028],85%
6,OC(F)(F)Oc1ccc(Nc2nc(N3CCCCCC3)nc(N3CCN(C45CC6CC(CC(C6)C4)C5)CC3)n2)cc1 [compound 812],99%
7,O=C1C(c2ccc(Cl)cc2)N(C2CCCCCC2)C(=O)CN1C1CCCC1 (stereo not drawn) [compound 1283],100%
8,Cc1cc(N2CCN(c3cc(N4CCN(CCO)CC4)ccc3[N+](=O)[O-])CC2)c2ccccc2n1 [compound 74],81%
9,O=C1c2ccccc2-c2onc3c(N4CCN(C5CCCCC5)CC4)cc(Nc4ccc5c(c4)OCCO5)c1c23 [compound 882],86%
10,O=C1C(c2ccc(Cl)cc2)N(C2CCCCC2)C(=O)CN1C1CCCC1 (stereo not drawn) [compound 1284],95%
11,COc1ccccc1N1CCN(CC(O)COC2CC(C)CCC2C(C)C)CC1.Cl.Cl (stereo not drawn) [compound 36],87%
12,c1ccc(CNc2nc(N3CCN(c4ccccc4)CC3)nc3ccccc23)cc1 [compound 67],102%
13,Cc1ccc(C2C(=O)N(C3CCC(C)CC3)CC(=O)N2C2CCCC2)cc1 (stereo not drawn) [compound 1262],86%
14,Cc1nc2sc(C(c3ccc(Br)cc3)N3CCN(C(c4ccccc4)c4ccccc4)CC3)c(O)n2n1 (stereo not drawn) [compound 1021],92%
15,O=C1C(c2ccc(F)cc2Cl)N(C2CCCc3ccccc32)C(=O)CN1C1CCCCCC1 (stereo not drawn) [compound 1280],87%
16,CC1CCC(C(C)C)C(OCC(O)CN2CCN(Cc3ccc(Cl)cc3)CC2)C1 (stereo not drawn) [compound 2496],82%
17,O=[N+]([O-])c1ccc(N2CCN(c3ccc(C(F)(F)F)cc3[N+](=O)[O-])CC2)cc1NCc1ccccc1 [compound 27],87%
18,Cc1nc(N2CCOCC2)nc(N2CCN(c3ccccc3)CC2)c1[N+](=O)[O-] [compound 69],106%
19,Cc1nc2sc(C(c3cccc(O)c3)N3CCN(C(c4ccccc4)c4ccccc4)CC3)c(O)n2n1 (stereo not drawn) [compound 1027],84%
20,c1ccc(Cc2nc(N3CCN(c4ccccn4)CC3)c3c4c(sc3n2)CCCC4)cc1 [compound 1323],88%
21,Cc1nc2sc(C(c3cccs3)N3CCN(C(c4ccccc4)c4ccccc4)CC3)c(O)n2n1 (stereo not drawn) [compound 1039],84%
22,Fc1ccc(N2CCN(c3ncnc4c3cnn4-c3ccccc3)CC2)cc1 [compound 159],95%
23,c1ccc(Cn2ncc3c(N4CCN(c5ccccn5)CC4)ncnc32)cc1 [compound 13],91%
24,N#Cc1nc(COc2ccccc2F)oc1N1CCN(c2ccccc2)CC1 [compound 711],94%
25,O=[N+]([O-])c1cc(S(=O)(=O)C(F)(F)F)ccc1N1CCN(c2ccccc2)CC1 [compound 107],98%
26,O=[N+]([O-])c1cc(Cl)ccc1N1CCN(c2ccc([N+](=O)[O-])c3cccnc23)CC1 [compound 34],82%
27,Clc1ccccc1N1CCN(c2ncnc3c2cnn3-c2ccccc2)CC1 [compound 51],100%
28,Cc1ccc(C(c2sc3nc(C)nn3c2O)N2CCN(C(c3ccccc3)c3ccccc3)CC2)cc1 (stereo not drawn) [compound 1019],87%
